Source: the supplement of paper PMC10307832

How the values were obtained:
Assay in all cases: relative viability (nuclei count vs DMSO), 5 days (fraction); higher = more cells survive
YM155 + Luminespib = compound: COCC[n+]1c2c(n(Cc3cnccn3)c1C)C(=O)c1ccccc1C2=O [YM155] + CCNC(=O)c1noc(-c2cc(C(C)C)c(O)cc2O)c1-c1ccc(CN2CCOCC2)cc1 [Luminespib] (partner 0.01 µM)
How it was run: (§1)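 Medians of duplicate plates are given as relative viability. That measure is the nuclei count in treated wells divided by the count in vehicle wells. Counts were taken on 4× images of lung cancer cell lines in 1536-well plates, 5 days after pin-tool dosing the day after seeding with one drug alone or a fixed anchor-drug dose plus five library-drug doses (not always all listed) in √10 steps.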

Quizartinib + Bortezomib = compound: CC(C)(C)c1cc(NC(=O)Nc2ccc(-c3cn4c(n3)sc3cc(OCCN5CCOCC5)ccc34)cc2)no1 [Quizartinib] + CC(C)C[C@H](NC(=O)[C@H](Cc1ccccc1)NC(=O)c1cnccn1)B(O)O [Bortezomib] (partner 0.002 µM)
How it was run: as §1

Quizartinib + Decitabine = compound: CC(C)(C)c1cc(NC(=O)Nc2ccc(-c3cn4c(n3)sc3cc(OCCN5CCOCC5)ccc34)cc2)no1 [Quizartinib] + Nc1ncn([C@H]2C[C@H](O)[C@@H](CO)O2)c(=O)n1 [Decitabine] (partner 2 µM)
How it was run: as §1

YM155 + Dasatinib = compound: COCC[n+]1c2c(n(Cc3cnccn3)c1C)C(=O)c1ccccc1C2=O [YM155] + Cc1nc(Nc2ncc(C(=O)Nc3c(C)cccc3Cl)s2)cc(N2CCN(CCO)CC2)n1 [Dasatinib] (partner 0.075 µM)
How it was run: as §1

| Cell Line | relative viability (YM155 + Luminespib; first compound 0.002 µM) | relative viability (YM155 + Luminespib; first compound 0.006325 µM) | relative viability (YM155 + Luminespib; first compound 0.02 µM) | relative viability (YM155 + Luminespib; first compound 0.06325 µM) | relative viability (Quizartinib + Bortezomib; first compound 0.001 µM) | relative viability (Quizartinib + Bortezomib; first compound 0.003162 µM) | relative viability (Quizartinib + Bortezomib; first compound 0.01 µM) | relative viability (Quizartinib + Bortezomib; first compound 0.03162 µM) | relative viability (Quizartinib + Bortezomib; first compound 0.1 µM) | relative viability (Quizartinib + Decitabine; first compound 0.001 µM) | relative viability (Quizartinib + Decitabine; first compound 0.003162 µM) | relative viability (Quizartinib + Decitabine; first compound 0.01 µM) | relative viability (Quizartinib + Decitabine; first compound 0.03162 µM) | relative viability (Quizartinib + Decitabine; first compound 0.1 µM) | relative viability (YM155 + Dasatinib; first compound 0.002 µM) | relative viability (YM155 + Dasatinib; first compound 0.006325 µM) | relative viability (YM155 + Dasatinib; first compound 0.02 µM) | relative viability (YM155 + Dasatinib; first compound 0.06325 µM) |
| --- | --- | --- | --- | --- | --- | --- | --- | --- | --- | --- | --- | --- | --- | --- | --- | --- | --- | --- |
| NCI-H2126 | 0.804 | 0.969 | 0.94 | 0.927 | 0.708 | 1.06 | 1.12 | 1.14 | 1.15 | 0.623 | 0.519 | 0.693 | 0.557 | 0.592 | 0.583 | 0.673 | 0.626 | 0.745 |
| EMC-BAC-2 | 1.19 | 1.11 | 1.12 | 0.982 | 0.986 | 1.14 | 0.985 | 0.857 | 1.05 | 0.812 | 0.975 | 1.04 | – | 0.996 | 0.327 | 0.355 | 0.325 | 0.338 |
| NCI-H1793 | 0.234 | 0.24 | 0.333 | 0.189 | – | – | – | – | – | 0.543 | 0.404 | 0.534 | 0.534 | 0.466 | 0.366 | 0.443 | 0.338 | 0.34 |
| NCI-H650 | 0.768 | 0.803 | 0.75 | 0.89 | 0.785 | 0.768 | 0.818 | 0.885 | 1.01 | 0.319 | 0.286 | 0.342 | 0.365 | 0.384 | 0.446 | 0.524 | 0.509 | 0.44 |
| NCI-H1437 | 1.1 | 1.1 | 0.976 | 0.76 | 0.354 | 0.492 | 0.393 | 0.49 | 0.255 | 0.402 | 0.54 | 0.567 | 0.536 | 0.499 | 0.351 | 0.324 | 0.348 | 0.253 |
| COR-L 105 | 0.813 | 0.641 | 0.57 | 0.529 | 0.64 | 0.632 | 0.634 | 0.632 | 0.617 | 0.642 | 0.653 | 0.641 | – | 0.625 | 0.284 | 0.333 | 0.312 | 0.283 |
| CAL-12T | 0.362 | 0.766 | 0.414 | 0.183 | 0.809 | 1.23 | 0.93 | 0.924 | 1.24 | – | – | – | – | – | 0.255 | 0.615 | 0.602 | 0.393 |
| IA-LM | – | – | – | – | 0.774 | 0.738 | 0.885 | 0.812 | 0.736 | – | – | – | – | – | – | – | – | – |
| ChaGo-K-1 | 0.651 | 0.509 | 0.715 | 0.714 | 0.693 | 1.16 | 1.06 | – | 1.28 | – | 0.521 | 0.589 | 0.532 | 0.596 | 0.463 | 0.503 | 0.582 | 0.629 |
| LU99A | 0.233 | 0.263 | 0.275 | 0.219 | 0.837 | 1.08 | 1.3 | 1.19 | 1.2 | 0.923 | 0.918 | 1.02 | 0.895 | 0.625 | 0.562 | 0.442 | 0.697 | 0.518 |
| EKVX | 0.847 | 0.855 | 0.888 | 0.724 | 0.892 | 0.938 | 1.01 | 1.13 | 1 | – | 0.282 | 0.361 | 0.369 | 0.353 | 0.647 | 0.539 | 0.491 | 0.62 |
